In patent publication US8273773B2 (priority 2008, dated 2012):

Tests used:
[1] = target: T1, HCV polymerase (NS5B570n-Con1) (Hepatitis C virus genotype 1b, UniProt Q9WMX2); assay: biochemical; design: species or system HCV Con1 strain;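 note: recombinant His-tagged enzyme from E. coli, radiolabeled nucleotide incorporation into acid-insoluble RNA read by scintillation after filtration, no-enzyme background subtracted, activity relative to positive control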
T1 construct: contains a 21 amino acid deletion at the C-terminus relative to the full-length HCV polymerase; 6-histidine (N); made in house; host or cells: E. coli strain BL21(DE) pLysS (pET17b)

[2] = IC50 HCV NS5B RNA Polymerase Assay, values without asterisk, 20 nM NS5B570n-Con1 enzyme, 20 nM cIRES RNA template

Row | SMILES | IC50 [1, 2] | melting point | IC50 ([1]; IC50 HCV NS5B RNA Polymerase Assay (values with asterisk), values with asterisk: cIRES RNA template, 3 nM NS5B570n-Con1)
1 | CNC(=O)Nc1ccc(CCc2cc(-c3ccc[nH]c3=O)cc(C(C)(C)C)c2)cc1 [I-86] | 278 nM | 237 to 239 °C | –
2 | COc1c(CCc2ccc(N)cc2)cc(-c2ccc[nH]c2=O)cc1C1(C)CC1 [I-99, 3-[3-[2-(4-amino-phenyl)-ethyl]-4-methoxy-5-(1-methyl-cyclopropyl)-phenyl]-1H-pyridin-2-one] | 590 nM | 209 to 211 °C | –
3 | COc1c(/C=C/c2ccc(NS(C)(=O)=O)cc2C#N)cc(-c2ccc[nH]c2=O)cc1C(C)(C)C [I-150, N-(4-{(E)-2-[3-tert-Butyl-2-methoxy-5-(2-oxo-1,2-dihydro-pyridin-3-yl)-phenyl]-vinyl}-3-cyano-phenyl)-methanesulfonamide] | 3 nM | 266 to 268 °C | –
4 | COc1c(C(=O)c2ccnc(N)c2)cc(-c2ccc[nH]c2=O)cc1C(C)(C)C [I-84, 3-[3-(2-Amino-pyridine-4-carbonyl)-5-tert-butyl-4-methoxy-phenyl]-1H-pyridin-2-one] | 32 nM | 140 to 145 °C | –
5 | Cc1cc(-c2cc(F)c[nH]c2=O)cc(C(C)(C)C)c1 [I-53] | 1930 nM | 244 to 246 °C | –
6 | COc1c(C(=O)c2cccc(F)c2)cc(-c2ccc[nH]c2=O)cc1C(C)(C)C [I-49] | 71 nM | 209 to 210 °C | –
7 | COc1c(/C=C(\C#N)c2ccc(NS(C)(=O)=O)cc2)cc(-c2ccc[nH]c2=O)cc1C(C)(C)C [I-138, N-(4-{(Z)-2-[3-tert-Butyl-2-methoxy-5-(2-oxo-1,2-dihydro-pyridin-3-yl)-phenyl]-1-cyano-vinyl}-phenyl)-methanesulfonamide] | 10 nM | 288 to 290 °C | –
8 | CC(C)(C)c1cc(CCc2ccc(NS(C)(=O)=O)cn2)c(C#N)c(-c2ccc[nH]c2=O)c1 [I-114, N-(6-{2-[5-tert-Butyl-2-cyano-3-(2-oxo-1,2-dihydro-pyridin-3-yl)-phenyl]-ethyl}-pyridin-3-yl)-methanesulfonamide] | 15 nM | 143 to 145 °C | –
9 | CC(C)(CO)c1cc(CCc2ccc(NS(C)(=O)=O)cc2)c(O)c(-c2ccc[nH]c2=O)c1 [I-199, N-(4-{2-[2-Hydroxy-5-(2-hydroxy-1,1-dimethyl-ethyl)-3-(2-oxo-1,2-dihydro-pyridin-3-yl)-phenyl]-ethyl}-phenyl)-methanesulfonamide] | 13 nM | 118 to 120 °C | –
10 | CC(C)(C)c1cc(CO)c(O)c(-c2ccc[nH]c2=O)c1 [I-10] | 1600 nM | 167 to 168 °C | –
11 | COc1c(/C=C/c2ccc(NS(C)(=O)=O)cc2)cc(-c2ccc[nH]c2=O)c2c1C(C)(C)CC2 [II-5, N-(4-{(E)-2-[4-Methoxy-3,3-dimethyl-7-(2-oxo-1,2-dihydro-pyridin-3-yl)-indan-5-yl]-vinyl}-phenyl)-methanesulfonamide] | – | 283 to 286.6 °C | 1 nM
12 | COc1c(C(=O)c2ccc(F)cc2)cc(-c2ccc[nH]c2=O)cc1C(C)(C)C [I-50] | 52 nM | 203 to 205 °C | –
13 | COc1c(CC(CN)c2ccc(NS(C)(=O)=O)cc2)cc(-c2ccc[nH]c2=O)cc1C(C)(C)C (centres unmarked) [I-191, N-(4-{1-Aminomethyl-2-[3-tert-butyl-2-methoxy-5-(2-oxo-1,2-dihydro-pyridin-3-yl)-phenyl]-ethyl}-phenyl)-methanesulfonamide] | 27 nM | 158 to 160 °C | –
14 | COc1c(C(=O)Nc2cccc(CNS(C)(=O)=O)c2)cc(-c2ccc[nH]c2=O)cc1C(C)(C)C [I-112, 3-tert-Butyl-N-[3-(methanesulfonylamino-methyl)-phenyl]-2-methoxy-5-(2-oxo-1,2-dihydro-pyridin-3-yl)-benzamide] | 48 nM | 145 to 147 °C | –
15 | CC(C)(C)c1cc(CCc2ccc(NS(C)(=O)=O)cc2)c(O)c(-c2ccc[nH]c2=O)c1 [I-51, N-(4-{2-[5-tert-Butyl-2-hydroxy-3-(2-oxo-1,2-dihydro-pyridin-3-yl)-phenyl]-ethyl}-phenyl)-methanesulfonamide] | 10 nM | 96.4 to 135.6 °C | –
16 | COc1c(NC(=O)c2ccccc2)cc(-c2ccc[nH]c2=O)cc1C(C)(C)C [I-58] | 34 nM | 212 to 216 °C | –
17 | COc1c(NC(=O)c2ccc(NS(C)(=O)=O)cc2)cc(-c2ccc[nH]c2=O)cc1C1(C)CC1 [I-82] | 6 nM | 254 to 256 °C | –
18 | CC(C)(C)c1cc(-c2ccccc2)c(O)c(-c2ccc[nH]c2=O)c1 [I-15] | 2920 nM | 235.8 to 237 °C | –
19 | COc1c(CCc2ccc(NS(C)(=O)=O)c(C)c2)cc(-c2ccc[nH]c2=O)cc1C(C)(C)C [I-110] | 16 nM | 114 to 116 °C | –
20 | COc1c(C(=O)NC2CCCCC2)cc(-c2ccc[nH]c2=O)cc1C(C)(C)C [I-101] | 753 nM | 136 to 138 °C | –
21 | CC(C)(C)c1cc(Br)c(O)c(-c2ccc[nH]c2=O)c1 [I-13] | 360 nM | 243.4 to 246.2 °C | –
22 | CCOc1cc(NS(C)(=O)=O)ccc1C(=O)Nc1cc(-c2ccc[nH]c2=O)cc(C(C)(C)C)c1OC [I-115] | 9 nM | 290 to 292 °C | –

Row | SMILES | IC50 [1, 2] | melting point | IC50 ([1]; IC50 HCV NS5B RNA Polymerase Assay (values with asterisk), values with asterisk: cIRES RNA template, 3 nM NS5B570n-Con1)
23 | CC(C)(C)c1cc(-c2ccc[nH]c2=O)cc(S(=O)(=O)c2ccccc2)c1 [I-107, 3-(3-Benzenesulfonyl-5-tert-butyl-phenyl)-1H-pyridin-2-one] | 2490 nM | 252 to 253 °C | –
24 | COc1c(CCc2ccc(NS(C)(=O)=O)cc2C)cc(-c2ccc[nH]c2=O)cc1C(C)(C)C [I-109, N-(4-{2-[3-tert-Butyl-2-methoxy-5-(2-oxo-1,2-dihydro-pyridin-3-yl)-phenyl]-ethyl}-3-methyl-phenyl)-methanesulfonamide] | 7 nM | 240 to 242 °C | –
25 | CC(C)(C)c1cc(/C=C/c2ccc(NS(C)(=O)=O)cc2)c(O)c(-c2ccc[nH]c2=O)c1 [I-137] | 10 nM | 180 to 182 °C | –
26 | CC1(C)COc2c(-c3ccc[nH]c3=O)cc(/C=C/c3ccc(NS(C)(=O)=O)cc3)cc21 [II-2] | 6 nM | 231 to 233 °C | –
27 | Cc1ccc(-c2cc(C(C)(C)C)cc(/C=C/c3ccc(NS(C)(=O)=O)cc3)c2O)c(=O)[nH]1 [I-140] | 322 nM | 258 to 260 °C | –
28 | COc1c(CCc2ccc(NS(C)(=O)=O)nc2)cc(-c2ccc[nH]c2=O)cc1C(C)(C)C [I-123] | 3 nM | 140 to 142 °C | –
29 | CC(C)(C)c1cc(CCc2ccc(NS(C)(=O)=O)cc2)c(C(N)=O)c(-c2ccc[nH]c2=O)c1 [I-122, 4-tert-Butyl-2-[2-(4-methanesulfonylamino-phenyl)-ethyl]-6-(2-oxo-1,2-dihydro-pyridin-3-yl)-benzamide] | 3 nM | 170 to 172 °C | –
30 | CC(=O)Nc1ccc(CCc2cc(-c3ccc[nH]c3=O)cc(C(C)(C)C)c2)cc1 [I-83] | 125 nM | 218 to 220 °C | –
31 | CCc1cc(C(C)(C)C)cc(-c2ccc[nH]c2=O)c1O [I-14] | 332 nM | 224.2 to 226.2 °C | –
32 | CC(C)(C)c1cc(/C=C/c2ccc(NS(C)(=O)=O)cc2)cc(-c2cc(F)c[nH]c2=O)c1 [I-148] | 6 nM | 210 to 212 °C | –
33 | CCC(C)(C)c1cc(Br)c(O)c(-c2ccc[nH]c2=O)c1 [I-9] | 3100 nM | 257.2 to 257.7 °C | –
34 | CC(=O)Nc1c(CCc2ccc(NS(C)(=O)=O)cc2)cc(C(C)(C)C)cc1-c1ccc[nH]c1=O [I-80, N-[4-tert-Butyl-2-[2-(4-methanesulfonylamino-phenyl)-ethyl]-6-(2-oxo-1,2-dihydro-pyridin-3-yl)-phenyl]-acetamide] | 97 nM | 180 to 182 °C | –
35 | COc1c(C(=O)c2cccc(O)c2)cc(-c2ccc[nH]c2=O)cc1C(C)(C)C [I-54] | 9 nM | 145 to 148 °C | –
36 | CC(C)(C)c1cc(-c2ccc[nH]c2=O)ccc1OC(F)F [I-6, 3-(3-tert-Butyl-4-difluoromethoxy-phenyl)-1H-pyridin-2-one] | 2570 nM | 174 to 175 °C | –
37 | COc1c(CC(C)(C#N)c2ccc(NS(C)(=O)=O)cc2)cc(-c2ccc[nH]c2=O)cc1C(C)(C)C (centres unmarked) [I-196, N-(4-{2-[3-tert-Butyl-2-methoxy-5-(2-oxo-1,2-dihydro-pyridin-3-yl)-phenyl]-1-cyano-1-methyl-ethyl}-phenyl)-methanesulfonamide] | 30 nM | 158 to 160 °C | –
38 | COc1c(CCc2ccc(NS(C)(=O)=O)cc2)cc(-c2cc(F)c[nH]c2=O)cc1C(C)(C)C [I-67] | 10 nM | 125 to 130 °C | –
39 | COc1c(NC(=O)c2ccc(NS(C)(=O)=O)cc2Cl)cc(-c2ccc[nH]c2=O)cc1C(C)(C)C [I-116] | 11 nM | 263 to 265 °C | –
40 | COc1c(/C=C/c2ccc(NS(C)(=O)=O)cc2C#N)cc(-c2cc(F)c[nH]c2=O)cc1C(C)(C)C [I-151, N-(4-{(E)-2-[3-tert-Butyl-5-(5-fluoro-2-oxo-1,2-dihydro-pyridin-3-yl)-2-methoxy-phenyl]-vinyl}-3-cyano-phenyl)-methanesulfonamide] | 5 nM | 158 to 160 °C | –
41 | CC(C)(C)c1cc(CCc2ccc(NS(C)(=O)=O)cc2)cc(-c2ccc[nH]c2=O)c1 [I-74] | 25 nM | 211 to 213 °C | –
42 | CC1(C)COc2c(-c3ccc[nH]c3=O)cc(NC(=O)c3ccc(NS(C)(=O)=O)cc3)cc21 [II-4, N-[3,3-Dimethyl-7-(2-oxo-1,2-dihydro-pyridin-3-yl)-2,3-dihydro-benzofuran-5-yl]-4-methanesulfonylamino-benzamide] | 33 nM | > 300 °C | –
43 | COc1ccc(-c2ccc[nH]c2=O)cc1C1(C)CC1 [I-61] | 1230 nM | 194 to 195 °C | –
